Source: US7538135B2, “Benzenesulfonylamino compounds and pharmaceutical compositions containing these compounds” (Novartis AG, priority 2003, dated 2009)

Tests used:
[1] = target: T1, GST-hPPARα LBD (Homo sapiens, UniProt Q07869); experiment: PPARα receptor binding assay (CARLA, TR-FRET functional binding); assay type: biochemical; details: TR-FRET coactivator (SRC-1 peptide) recruitment, 3 hours at room temperature
T1 construct: made in house; host or cells: E. coli BL21(DE3)
T1 sequence (Q07869 167-468): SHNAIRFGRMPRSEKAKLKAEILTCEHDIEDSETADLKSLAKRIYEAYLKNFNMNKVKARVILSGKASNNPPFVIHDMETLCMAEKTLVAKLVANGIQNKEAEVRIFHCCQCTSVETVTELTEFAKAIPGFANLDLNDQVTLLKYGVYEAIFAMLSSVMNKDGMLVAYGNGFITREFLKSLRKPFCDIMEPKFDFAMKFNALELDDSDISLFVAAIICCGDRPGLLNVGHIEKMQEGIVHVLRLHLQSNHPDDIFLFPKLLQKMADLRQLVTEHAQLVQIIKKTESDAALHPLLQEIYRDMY
T1 sequence (Q15788 676-700 partner limits assumed): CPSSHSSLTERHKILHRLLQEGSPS
Experimental: (§1) The in vitro functional binding to the PPARα, PPARδ and PPARγ receptors is determined as follows:
(§2) The functional binding assays for the PPARα, PPARδ and PPARγ receptors are a variation of the coactivator-dependent receptor ligand assay (CARLA) (see Krey et al., “Fatty Acids, Eicosanoids, and Hypolipidemic Agents Identified as Ligands of Peroxisome Proliferator-Activated Receptors by Coactivator-Dependent Receptor Ligand Assay”, Molecular Endocrinology, Vol. 11, pp. 779-791 (1997)). The present CARLA assays use a TR-FRET detection method previously reviewed (see Hemmila, “LANCE: Homogeneous Assay Platform for HTS”, J. Biomol. Screening, Vol. 4, pp. 303-307 (1999); Mathis, “HTRF Technology”, J. Biomol. Screening, Vol. 4, pp. 309-313 (1999)). […] This brings the Eu-labeled anti-GST antibody and the strepavidin-labeled APC in close proximity, thereby facilitating fluorescence energy transfer. […] After mixing all components, the reaction mixture stands for 3 hours at room temperature before reading the TR-FRET (Time-Resolved Fluorescence Resonance Energy Transfer) signal on a Wallac Victor 2 plate reader (measuring the ratio of signals at […]). […]

[2] = target: T2, GST-hPPARγ LBD (Homo sapiens, UniProt P37231); experiment: PPARγ receptor binding assay (CARLA, TR-FRET functional binding); assay type: biochemical; details: TR-FRET coactivator (SRC-1 peptide) recruitment, 3 hours at room temperature
T2 construct: GST-hPPARγ LBD (amino acids 175-476); made in house; host or cells: E. coli BL21(DE3)
T2 sequence (P37231 175-476 isoform P37231-2): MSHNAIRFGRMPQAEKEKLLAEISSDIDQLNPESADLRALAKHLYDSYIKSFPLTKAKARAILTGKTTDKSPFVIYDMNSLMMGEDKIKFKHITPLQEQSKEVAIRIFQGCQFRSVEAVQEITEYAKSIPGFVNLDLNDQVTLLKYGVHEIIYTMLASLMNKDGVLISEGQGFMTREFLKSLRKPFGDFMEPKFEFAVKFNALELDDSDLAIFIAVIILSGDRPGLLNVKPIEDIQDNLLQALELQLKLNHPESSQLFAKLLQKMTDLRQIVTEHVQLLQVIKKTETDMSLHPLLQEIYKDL
T2 sequence (Q15788 676-700 partner limits assumed): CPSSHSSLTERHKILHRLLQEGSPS
Experimental: as §1, §2

## CCOC(=O)c1cn(CC)nc1NS(=O)(=O)c1ccc(OCc2nc(-c3ccc(C(F)(F)F)cc3)oc2C)cc1 [Example 1, 1-Ethyl-3-{4-[5-methyl-2-(4-trifluoromethyl-phenyl)oxazol-4-ylmethoxy]-benzene-sulfonylamino}-1H-pyrazole-4-carboxylic acid ethyl ester]
[1]
  EC50: ~5 nM
[2]
  EC50: ~3 nM
